In patent US11339157B1, “4H-pyrrolo[3,2-c]pyridin-4-one derivatives” (Bayer Aktiengesellschaft, priority 2017, dated 2022):
Values joined by “and” are separate entries in the source; they are usually repeats but may differ in a detail not shown here. Equal values may be shown once.

Assays:
[1] = system: Ba/F3-EGFR-WT cells; test: Proliferation assay in BA/F3 (wild type) cells (Cell Titer-Glo); assay type: cell-based
Procedure: (§1) Cellular Data Description (WT, insSVD, Ins ASV)
(§2) Plates were incubated at 37° C. for 48 h. Retrovirus was harvested by filtering the media supernatant through a 0.45 μm filter.
(§3) Ba/F3 cells purchased from DSMZ were grown in RPMI+10% FBS+10 ng/mL IL-3 and infected with filtered retroviral supernatant at a 1:2 dilution. Polybrene was added to a concentration of 8 μg/mL, plates were spun for 90 min, and incubated overnight at 37° C. 2 μg/mL puromycin was added to the infected cells 24 h after infection and cells were continually grown in the presence of puromycin and 10 ng/mL IL-3. Following stably expressing Ba/F3 cell lines were generated: Ba/F3-EGFR-WT, Ba/F3-EGFR-insSVD.
(§4) The cells ectopically expressing WT EGFR were plated with 10 ng/mL Millipore Culture grade EGF. The cells ectopically expressing EGFR-insSVD were plated without EGF.
(§5) 100 nL of compound was added to each well using a 100 nL pin head, and plates were incubated at 37° C. for 48 h.
(§6) Cell viability was measured by adding 30 μL of Cell Titer-Glo Luminescent Cell Viability Reagent. Plates were sealed with Perkin Elmer Top-Seal, inverted several times to mix, and immediately centrifuged at 1000 rpm for 2 min. Plates were incubated in low light conditions for 8-10 min and luminescence was measured.

[2] = target: EGFR ins SVD (insertion of SVD between D770 and N771) (Homo sapiens, UniProt P00533, INS767SVD); test: Exon 20-Mutant-EGFR(D770_N771insSVD) kinase assay (TR-FRET); assay type: biochemical; details: Table 9; read-out: mutEGFR (D770_N771insSVD) kinase assay IC50
Chain of EGFR ins SVD (insertion of SVD between D770 and N771) (P00533 with tags, fused parts or gaps INS767SVD limits assumed): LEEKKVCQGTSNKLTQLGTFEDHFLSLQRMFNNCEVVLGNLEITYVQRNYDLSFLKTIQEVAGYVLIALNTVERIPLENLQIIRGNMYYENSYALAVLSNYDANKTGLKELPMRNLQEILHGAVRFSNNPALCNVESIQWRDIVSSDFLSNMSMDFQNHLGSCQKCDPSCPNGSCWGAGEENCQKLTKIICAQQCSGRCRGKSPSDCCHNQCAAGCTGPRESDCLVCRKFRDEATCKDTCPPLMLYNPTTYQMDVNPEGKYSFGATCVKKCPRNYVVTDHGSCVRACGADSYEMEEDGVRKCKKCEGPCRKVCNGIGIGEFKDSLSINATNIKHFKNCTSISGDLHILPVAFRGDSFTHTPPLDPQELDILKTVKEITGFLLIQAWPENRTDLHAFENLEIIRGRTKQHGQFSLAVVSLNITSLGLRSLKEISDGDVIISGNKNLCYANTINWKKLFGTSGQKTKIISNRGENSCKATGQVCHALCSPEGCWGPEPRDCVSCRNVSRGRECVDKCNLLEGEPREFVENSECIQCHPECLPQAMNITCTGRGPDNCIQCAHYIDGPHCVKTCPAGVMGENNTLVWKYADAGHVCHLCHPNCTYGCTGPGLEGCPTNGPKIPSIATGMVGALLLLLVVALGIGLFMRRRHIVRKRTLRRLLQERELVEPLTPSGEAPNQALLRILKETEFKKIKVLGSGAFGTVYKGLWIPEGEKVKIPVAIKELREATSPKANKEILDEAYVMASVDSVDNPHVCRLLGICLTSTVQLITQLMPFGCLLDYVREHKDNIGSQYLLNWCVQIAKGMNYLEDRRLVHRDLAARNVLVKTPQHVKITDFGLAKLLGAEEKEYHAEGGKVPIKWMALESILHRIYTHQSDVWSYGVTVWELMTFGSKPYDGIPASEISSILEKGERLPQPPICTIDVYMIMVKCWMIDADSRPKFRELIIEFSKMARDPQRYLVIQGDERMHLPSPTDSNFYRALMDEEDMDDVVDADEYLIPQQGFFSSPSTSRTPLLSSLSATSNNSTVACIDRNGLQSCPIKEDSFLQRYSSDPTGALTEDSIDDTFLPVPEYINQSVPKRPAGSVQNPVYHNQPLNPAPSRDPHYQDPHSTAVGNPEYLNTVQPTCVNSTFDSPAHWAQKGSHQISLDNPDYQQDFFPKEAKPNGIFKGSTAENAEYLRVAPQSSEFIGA

[3] = system: Ba/F3-EGFR-insSVD cells; test: Proliferation assay in BA/F3 (ins SVD) cells (Cell Titer-Glo); assay type: cell-based
Procedure: as §1, §2, §3, §4, §5, §6

[4] = Mus musculus, BaF3, 48 h, Table 10, plated with 10 ng/mL EGF
[5] = Mus musculus, BaF3, 48 h, Table 10, plated without EGF
[6] = Table 10, plated without EGF, 48 h
[7] = Mus musculus, BaF3, Table 10, plated with 10 ng/mL EGF, 48 h
[8] = Mus musculus, BaF3, Table 10, plated without EGF, 48 h

| SMILES | IC50 [1, 4] [nM] | IC50 [2] [nM] | IC50 [3, 5] [nM] | IC50 [3, 6] | IC50 [1, 7] [nM] | IC50 [3, 8] [nM] | IC50 ([1]; Table 10, plated with 10 ng/mL EGF, 48 h) [nM] |
| --- | --- | --- | --- | --- | --- | --- | --- |
| CN1CCC[C@H]1COc1cnccc1-c1[nH]c2c(c1Nc1cccc(Cl)c1OC(F)F)C(=O)NCC2 [Example 50, 3-[3-chloro-2-(difluoromethoxy)anilino]-2-(3-{[(2S)-1-methylpyrrolidin-2-yl]methoxy}pyridin-4-yl)-1,5,6,7-tetrahydro-4H-pyrrolo[3,2-c]pyridin-4-one] | 2100 | 1.26 | 60.9 |  |  |  |  |
| O=C1NCCc2[nH]c(-c3ccncc3OCC3CCOC3)c(Nc3cccc(Cl)c3OC(F)F)c21 (stereo not shown) [Example 79, 3-[3-chloro-2-(difluoromethoxy)anilino]-2-{3-[(oxolan-3-yl)methoxy]pyridin-4-yl}-1,5,6,7-tetrahydro-4H-pyrrolo[3,2-c]pyridin-4-one] | 1810 | 0.242 | 118 |  |  |  |  |
| COCCOc1cnccc1-c1[nH]c2c(c1Nc1cccc(Cl)c1Cl)C(=O)NCC2 [Example 46, 3-(2,3-dichloroanilino)-2-[3-(2-methoxyethoxy)pyridin-4-yl]-1,5,6,7-tetrahydro-4H-pyrrolo[3,2-c]pyridin-4-one] | 364 | 0.0912 | 15.1 |  |  |  |  |
| O=C1NCCc2[nH]c(-c3ccncc3OCC3CCOCC3)c(Nc3cccc(Cl)c3OC(F)F)c21 [Example 82, 3-[3-chloro-2-(difluoromethoxy)anilino)-2-{3-[(oxan-4-yl)-methoxy]pyridin-4-yl}-1,5,6,7-tetrahydro-4H-pyrrolo[3,2-c]pyridin-4-one] | 8610 | 0.399 | 909 |  |  |  |  |
| COc1c(F)cccc1Nc1c(-c2ccncc2OCC2CCCO2)[nH]c2c1C(=O)NCC2 (single isomer, unassigned; enantiomer 1) [Example 88, 3-(3-fluoro-2-methoxyanilino)-2-{3-[(oxolan-2-yl)methoxy]pyridin-4-yl}-1,5,6,7-tetrahydro-4H-pyrrolo[3,2-c]pyridin-4-one (enantiomer 1)] | 388 | 0.0888 |  | 38 nM |  |  |  |
| Cc1c(F)cccc1Nc1c(-c2ccncc2OCCN(C)C)[nH]c2c1C(=O)NCC2 [Example 56, 2-{3-[2-(dimethylamino)ethoxy]pyridin-4-yl}-3-(3-fluoro-2-methylanilino)-1,5,6,7-tetrahydro-4H-pyrrolo[3,2-c]pyridin-4-one] | 1900 | 0.562 | 242 |  |  |  |  |
| COc1c(F)cccc1Nc1c(-c2ccncc2OCC2CCCCN2C)[nH]c2c1C(=O)NCC2 (stereo not shown) [Example 90, 3-(3-fluoro-2-methoxyanilino)-2-(3-{[1-methylpiperidin-2-yl]methoxy}pyridin-4-yl)-1,5,6,7-tetrahydro-4H-pyrrolo[3,2-c]pyridin-4-one] | 2660 | 0.69 | 29 |  |  |  |  |
| COc1c(Cl)cccc1Nc1c(-c2ccncc2OCCN(C)C)[nH]c2c1C(=O)NCC2 [Example 54, 3-(3-chloro-2-methoxyanilino)-2-{3-[2-(dimethylamino)ethoxy]pyridin-4-yl}-1,5,6,7-tetrahydro-4H-pyrrolo[3,2-c]pyridin-4-one] | 1300 | 0.912 | 37.5 |  |  |  |  |
| Cc1c(F)cccc1Nc1c(-c2ccncc2OC[C@@H]2CCCN2C)[nH]c2c1C(=O)NCC2 [Example 49, 3-(3-fluoro-2-methylanilino)-2-(3-{[(25)-1-methylpyrrolidin-2-yl]methoxy}pyridin-4-yl)-1,5,6,7-tetrahydro-4H-pyrrolo[3,2-c]pyridin-4-one] |  | 0.518 |  |  | 919 | 19.1 |  |
| Cc1c(Cl)cccc1Nc1c(-c2ccncc2OCC(C)(C)N(C)C)[nH]c2c1C(=O)NCC2 [Example 60, 3-(3-chloro-2-methylanilino)-2-{3-[2-(dimethylamino)-2-methylpropoxy]pyridin-4-yl}-1,5,6,7-tetrahydro-4H-pyrrolo[3,2-c]pyridin-4-one] | 1750 | 0.695 | 38.6 |  |  |  |  |
| COc1c(F)cccc1Nc1c(-c2ccncc2OCC2CCCO2)[nH]c2c1C(=O)NCC2 (single isomer, unassigned; enantiomer 2) [Example 89, 3-(3-fluoro-2-methoxyanilino)-2-{3-[(oxolan-2-yl)methoxy]pyridin-4-yl}-1,5,6,7-tetrahydro-4H-pyrrolo[3,2-c]pyridin-4-one (enantiomer 2)] |  | 0.108 |  | 12.8 nM |  |  | 252 |
| COc1c(F)cccc1Nc1c(-c2ccncc2OCC(C)(C)O)[nH]c2c1C(=O)NCC2 [Example 72, 3-(3-fluoro-2-methoxyanilino)-2-[3-(2-hydroxy-2-methylpropoxy)pyridin-4-yl]-1,5,6,7-tetrahydro-4H-pyrrolo[3,2-c]pyridin-4-one] | 1010 | 0.144 | 67.7 |  |  |  |  |
| CN1CCC[C@H]1COc1cnccc1-c1[nH]c2c(c1Nc1cccc(Cl)c1Cl)C(=O)NCC2 [Example 71, 3-(2,3-dichloroanilino)-2-(3-{[(2S)-1-methylpyrrolidin-2-yl]methoxy}pyridin-4-yl)-1,5,6,7-tetrahydro-4H-pyrrolo[3,2-c]pyridin-4-one] | 781 | 0.258 | 20.2 |  |  |  |  |
| O=C1NCCc2[nH]c(-c3ccncc3OC[C@@H]3CCCO3)c(Nc3cccc(Cl)c3Cl)c21 [Example 70, 3-(2,3-dichloroanilino)-2-(3-{[(2S)-oxolan-2-yl]methoxy}pyridin-4-yl)-1,5,6,7-tetrahydro-4H-pyrrolo[3,2-c]pyridin-4-one] | 297 | 0.0918 | 16.1 |  |  |  |  |
| COc1c(Cl)cccc1Nc1c(-c2ccncc2OCC2CCCCN2C)[nH]c2c1C(=O)NCC2 (stereo not shown) [Example 63, 3-(3-chloro-2-methoxyanilino)-2-(3-{[1-methylpiperidin-2-yl]methoxy}pyridin-4-yl)-1,5,6,7-tetrahydro-4H-pyrrolo[3,2-c]pyridin-4-one] | 485 | 0.509 | 12.3 |  |  |  |  |
| COC(C)(C)COc1cnccc1-c1[nH]c2c(c1Nc1cccc(F)c1C(F)(F)F)C(=O)NCC2 [Example 41, 3-[3-fluoro-2-(trifluoromethyl)anilino]-2-[3-(2-methoxy-2-methylpropoxy)pyridin-4-yl]-1,5,6,7-tetrahydro-4H-pyrrolo[3,2-c]pyridin-4-one] | 795 | 0.124 | 52.5 |  |  |  |  |
| COC(C)(C)COc1cnccc1-c1[nH]c2c(c1Nc1cc(F)cc(F)c1OC(F)F)C(=O)NCC2 [Example 43, 3-[2-(difluoromethoxy)-3,5-difluoroanilino]-2-[3-(2-methoxy-2-methylpropoxy)pyridin-4-yl]-1,5,6,7-tetrahydro-4H-pyrrolo[3,2-c]pyridin-4-one] | 1880 | 0.1 | 117 |  |  |  |  |
| COc1c(Cl)cccc1Nc1c(-c2ccncc2OC[C@@H]2CCCN2CC(F)(F)F)[nH]c2c1C(=O)NCC2 [Example 95, 3-(3-chloro-2-methoxyanilino)-2-(3-{[(2S)-1-(2,2,2-trifluoroethyl)pyrrolidin-2-yl]methoxy}pyridin-4-yl)-1,5,6,7-tetrahydro-4H-pyrrolo[3,2-c]pyridin-4-one] | 2370 | 0.187 | 141 |  |  |  |  |
| CCc1c(F)cccc1Nc1c(-c2ccncc2OCC(C)(C)OC)[nH]c2c1C(=O)NCC2 [Example 35, 3-(2-ethyl-3-fluoroanilino)-2-[3-(2-methoxy-2-methylpropoxy)pyridin-4-yl]-1,5,6,7-tetrahydro-4H-pyrrolo[3,2-c]pyridin-4-one] | 428 | 0.185 | 7.98 |  |  |  |  |
| COc1c(Cl)cccc1Nc1c(-c2ccncc2OC[C@@H]2CCCO2)[nH]c2c1C(=O)NCC2 [Example 66, 3-(3-chloro-2-methoxyanilino)-2-(3-{[(2S)-oxolan-2-yl]methoxy}pyridin-4-yl)-1,5,6,7-tetrahydro-4H-pyrrolo[3,2-c]pyridin-4-one] |  | 0.0932 |  |  |  | 4.6 |  |
| CC(C)(COc1cnccc1-c1[nH]c2c(c1Nc1cccc(F)c1OC(F)F)C(=O)NCC2)N1CCOCC1 [Example 76, 3-[2-(difluoromethoxy)-3-fluoroanilino]-2-{3-[2-methyl-2-(morpholin-4-yl)propoxy]pyridin-4-yl}-1,5,6,7-tetrahydro-4H-pyrrolo[3,2-c]pyridin-4-one] |  | 0.845 |  |  | 2090 | 250 |  |
| COc1c(Cl)cccc1Nc1c(-c2ccncc2OC[C@H]2CCCO2)[nH]c2c1C(=O)NCC2 [Example 67, 3-(3-chloro-2-methoxyanilino)-2-(3-{[(2R)-oxolan-2-yl]methoxy}pyridin-4-1)-1,5,6,7-tetrahydro-4H-pyrrolo[3,2-c]pyridin-4-one] |  | 0.0908 |  |  |  | 9.33 |  |
| COC(C)(C)COc1cnccc1-c1[nH]c2c(c1Nc1cccc(F)c1C)C(=O)NCC2 [Example 21, 3-[(3-fluoro-2-methylphenyl)amino]-2-[3-(2-methoxy-2-methylpropoxy)pyridin-4-yl]-1,5,6,7-tetrahydro-4H-pyrrolo[3,2-c]pyridin-4-one] | 251 |  | 8.81 | 7.48 nM and < 4.78 nM and 6.8 nM and 7.49 nM |  |  |  |
